Literature values in patent US20260355131A1, “SPRAY-DRIED COMPOSITIONS COMPRISING ADRENERGIC RECEPTOR MODULATORS” (OREXO AB, priority 2023, published 2026).

Columns and labels:
[1] = in solution
[2] = free acid/base compound

CNC[C@H](O)c1ccc(O)c(O)c1 [epinephrine]
pH below which epinephrine is stable [1]: below 4 | optimum pH balancing racemization and oxidation ([1]; Connors et al): 3.0-3.8 | aqueous solubility [2]: more limited aqueous solubility
